Test results: patent US8030336B2, “Nicotinamide-based kinase inhibitors” (YM Biosciences Australia Pty Ltd, priority 2002, dated 2011)

How the values were obtained:
Type in all cases: biochemical
abl = biological target: T1, abl (Homo sapiens, UniProt P00519); experiment: abl kinase assay (ELISA or Alphascreen); conditions: read-out: abl inhibition of enzyme activity
T1 sequence (P00519 242-493 limits assumed): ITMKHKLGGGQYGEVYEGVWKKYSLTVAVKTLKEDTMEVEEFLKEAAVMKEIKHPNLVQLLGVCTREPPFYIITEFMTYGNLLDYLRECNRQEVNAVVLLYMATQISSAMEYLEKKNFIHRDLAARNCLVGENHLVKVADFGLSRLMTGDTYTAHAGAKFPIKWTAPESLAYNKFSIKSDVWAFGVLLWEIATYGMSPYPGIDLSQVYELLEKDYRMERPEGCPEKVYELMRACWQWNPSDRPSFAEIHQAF
How it was run: (§1)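 Affinity-purified PTK domain (~1.5 μg) phosphorylated biotinylated peptide (5 μM final) in 50 mM HEPES pH 7.5, 10 mM MgCl2, 150 mM NaCl, 10 μM-1 mM ATP. Phosphotyrosine read by PY20 ELISA or Alphascreen.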

fes = fes (Homo sapiens, UniProt P07332); experiment: fes kinase assay (ELISA or Alphascreen); conditions: read-out: fes inhibition of enzyme activity
How it was run: as §1

hck = hck (Homo sapiens, UniProt P08631); experiment: hck kinase assay (ELISA or Alphascreen); conditions: read-out: hck inhibition of enzyme activity
Description: Kinase assays were performed in a 96 well capture-based ELISA assay or in 384 well Optiplates (Packard) using an Alphascreen Protein Tyrosine Kinase kit. In either case using approximately 1.5 μg of affinity purified PTK domain in the presence of 50 mM HEPES, pH 7.5, 10 mM MgCl2, 150 mM NaCl and 10 μM-1 mM ATP. The biotinylated substrate biotin-EGPWLEEEEEAYGWMDF-NH2 (SEQ ID NO:9) (final concentration 5 μM) was used as substrate. In the ELISA assay tyrosine phosphorylation was quantitated following transfer to an avidin coated ELISA plate using peroxidase-linked anti-phosphotyrosine antibody PY20. In the Alphascreen assay, Alphascreen phosphotyrosine acceptor beads followed by streptavidin donor beads were added under subdued light. The ELISA plates were read on a BMG Fluorostar, the Alphascreen plates were read on a Packard Fusion Alpha. Inhibitors were added to the assays fifteen minutes prior to the addition of ATP. Inhibitors were added in aqueous […] concentrations never exceeding 1%.

Zap70 = biological target: T2, Zap70 (Homo sapiens, UniProt P43403); experiment: Zap70 kinase assay (ELISA or Alphascreen); conditions: read-out: Zap70 inhibition of enzyme activity
T2 sequence (P43403 338-600 limits assumed): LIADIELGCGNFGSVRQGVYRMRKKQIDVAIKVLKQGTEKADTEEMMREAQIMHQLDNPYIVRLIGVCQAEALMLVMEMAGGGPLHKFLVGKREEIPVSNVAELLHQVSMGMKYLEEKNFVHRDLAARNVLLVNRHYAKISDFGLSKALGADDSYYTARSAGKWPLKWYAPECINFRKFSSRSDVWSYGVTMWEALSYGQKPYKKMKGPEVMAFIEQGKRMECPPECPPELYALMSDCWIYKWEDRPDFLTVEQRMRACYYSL
How it was run: as §1

fms = biological target: T3, fms (Homo sapiens, UniProt P07333); experiment: fms kinase assay (ELISA or Alphascreen); conditions: read-out: fms inhibition of enzyme activity
T3 sequence (P07333 582-910 limits assumed): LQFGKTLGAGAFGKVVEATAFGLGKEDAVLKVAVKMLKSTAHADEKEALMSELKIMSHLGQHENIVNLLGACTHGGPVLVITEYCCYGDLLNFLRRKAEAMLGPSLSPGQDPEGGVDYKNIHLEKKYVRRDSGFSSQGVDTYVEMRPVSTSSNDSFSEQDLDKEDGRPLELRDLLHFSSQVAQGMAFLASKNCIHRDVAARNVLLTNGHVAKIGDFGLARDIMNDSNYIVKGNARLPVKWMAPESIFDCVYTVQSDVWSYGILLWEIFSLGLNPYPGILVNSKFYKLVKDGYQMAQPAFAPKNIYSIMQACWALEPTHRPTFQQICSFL
How it was run: as §1

human JAK3 = biological target: T4, human JAK3 (Homo sapiens, UniProt P52333); experiment: JAK3 kinase assay (ELISA or Alphascreen); conditions: read-out: Jak3 inhibition of enzyme activity
T4 construct: The kinase domain of human JAK3 was amplified from U937mRNA; His tag (from the pFastBac HTb vector) (N); made in house; host or cells: baculovirus; Sf9 for virus, High Five insect cells for production
How it was run: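 His-tagged human JAK3 kinase domain from High Five cells, ~1.5 μg per assay, in 50 mM HEPES pH 7.5, 10 mM MgCl2, 150 mM NaCl, 10 μM-1 mM ATP, 5 μM biotinylated peptide substrate. Phosphotyrosine by PY20 ELISA or Alphascreen.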

human JAK2 = biological target: T5, human JAK2 (Homo sapiens, UniProt O60674); experiment: JAK2 kinase assay (ELISA or Alphascreen); conditions: read-out: Jak2 inhibition of enzyme activity
T5 construct: The kinase domain of human JAK2 was amplified from U937mRNA; His tag (from the pFastBac HTc vector) (N); made in house; host or cells: baculovirus; Sf9 for virus, High Five insect cells for production
How it was run: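 His-tagged human JAK2 kinase domain from baculovirus-infected insect cells, ~1.5 μg per assay, in 50 mM HEPES pH 7.5, 10 mM MgCl2, 150 mM NaCl, with 10 μM–1 mM ATP and 5 μM biotinylated peptide substrate. Phosphotyrosine detected by PY20 ELISA or AlphaScreen.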

Sequence of hck (P08631 262-515 limits assumed, species assumed): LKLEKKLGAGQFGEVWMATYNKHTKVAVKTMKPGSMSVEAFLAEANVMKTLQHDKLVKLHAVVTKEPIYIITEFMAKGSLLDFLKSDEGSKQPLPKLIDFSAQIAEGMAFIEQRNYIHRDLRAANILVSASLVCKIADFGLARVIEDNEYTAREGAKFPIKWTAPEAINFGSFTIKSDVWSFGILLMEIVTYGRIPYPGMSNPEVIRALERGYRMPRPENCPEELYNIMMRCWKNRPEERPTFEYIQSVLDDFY
T5 sequence (O60674 849-1124 limits assumed): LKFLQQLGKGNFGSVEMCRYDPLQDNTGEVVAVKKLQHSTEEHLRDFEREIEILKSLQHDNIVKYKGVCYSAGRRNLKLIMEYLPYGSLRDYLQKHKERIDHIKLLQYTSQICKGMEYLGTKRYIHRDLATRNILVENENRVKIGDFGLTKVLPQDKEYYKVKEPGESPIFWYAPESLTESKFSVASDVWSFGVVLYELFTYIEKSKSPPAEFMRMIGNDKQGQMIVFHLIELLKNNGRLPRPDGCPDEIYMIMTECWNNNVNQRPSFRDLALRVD
Sequence of fes (P07332 561-822 limits assumed, species assumed): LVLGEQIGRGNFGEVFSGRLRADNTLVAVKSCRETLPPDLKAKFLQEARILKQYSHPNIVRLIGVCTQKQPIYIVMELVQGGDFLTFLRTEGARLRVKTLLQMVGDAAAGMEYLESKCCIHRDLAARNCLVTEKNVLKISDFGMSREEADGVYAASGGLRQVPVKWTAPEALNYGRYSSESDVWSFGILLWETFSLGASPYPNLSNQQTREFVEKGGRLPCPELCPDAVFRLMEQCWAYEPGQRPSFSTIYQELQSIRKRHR
T4 sequence (P52333 822-1111 limits assumed): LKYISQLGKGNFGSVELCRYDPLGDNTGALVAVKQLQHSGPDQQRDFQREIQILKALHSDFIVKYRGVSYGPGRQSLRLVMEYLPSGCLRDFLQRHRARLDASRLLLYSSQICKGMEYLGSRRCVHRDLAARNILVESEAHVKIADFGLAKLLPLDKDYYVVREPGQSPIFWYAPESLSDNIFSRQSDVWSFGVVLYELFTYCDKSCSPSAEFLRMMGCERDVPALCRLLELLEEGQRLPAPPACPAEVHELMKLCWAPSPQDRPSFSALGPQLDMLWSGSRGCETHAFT

| Structure (SMILES) | inhibition at 10 µM (abl) [%] | inhibition at 10 µM (fes) [%] | inhibition at 10 µM (hck) [%] | inhibition at 10 µM (Zap70) [%] | inhibition at 10 µM (fms) [%] | inhibition at 10 µM (human JAK3) [%] | inhibition at 10 µM (human JAK2) [%] |
| --- | --- | --- | --- | --- | --- | --- | --- |
| COc1ccc(NC(=O)c2cncc(-c3cc(OC)c(OC)c(OC)c3)c2)c(OC)c1 | < 50 | < 50 | < 50 | < 50 | < 50 |  |  |
| COc1cc(-c2cncc(C(=O)NCCO)c2)cc(OC)c1OC | < 50 | < 50 | < 50 | ≥ 50 | < 50 |  |  |
| COc1cc(-c2cncc(C(=O)NCCO)c2)ccc1O | < 50 | < 50 | < 50 | < 50 |  | < 50 | < 50 |
| Cc1ccccc1NC(=O)c1cncc(-c2cc(C)c(O)c(C)c2)c1 | ≥ 50 |  | ≥ 50 | < 50 | ≥ 50 | < 50 | < 50 |
| COc1cc(-c2cncc(C(=O)Nc3ccccc3)c2)c(Cl)c(OC)c1OC | < 50 | < 50 | < 50 | < 50 |  | < 50 | < 50 |
| COc1cc(-c2cncc(C(=O)NCc3ccncc3)c2)c(Cl)c(OC)c1OC | < 50 | < 50 | < 50 | < 50 | < 50 |  | < 50 |
| COc1cc(-c2cncc(C(=O)NC(C)CCc3ccccc3)c2)c(Cl)c(OC)c1OC (stereo not drawn) | < 50 |  | < 50 | < 50 | < 50 | < 50 | < 50 |
| O=C(NCc1ccc(N2CCOCC2)cc1)c1cncc(-c2ccc3c(c2)OCO3)c1 | < 50 | < 50 | < 50 |  | < 50 | < 50 | < 50 |
| Cc1cc(F)ccc1NC(=O)c1cncc(-c2ccc3c(c2)OCO3)c1 | < 50 |  | < 50 | < 50 | < 50 | < 50 | < 50 |
| COc1ccc(NC(=O)c2cncc(-c3cccs3)c2)c(OC)c1 | < 50 | < 50 | < 50 | < 50 | < 50 |  | < 50 |
| COc1cc(NC(=O)c2cncc(-c3cccs3)c2)cc(OC)c1OC | < 50 | < 50 | < 50 | < 50 | < 50 |  | < 50 |
| COc1cc(-c2cncc(C(=O)Nc3cc(C)ccc3C)c2)ccc1O | ≥ 50 |  | ≥ 50 | < 50 | ≥ 50 | < 50 | < 50 |

Results, then the compound that gave them:

| inhibition at 10 µM (abl) [%] | inhibition at 10 µM (fes) [%] | inhibition at 10 µM (hck) [%] | inhibition at 10 µM (Zap70) [%] | inhibition at 10 µM (fms) [%] | inhibition at 10 µM (human JAK3) [%] | inhibition at 10 µM (human JAK2) [%] | Structure (SMILES) |
| --- | --- | --- | --- | --- | --- | --- | --- |
| < 50 |  | < 50 | < 50 | < 50 | < 50 | < 50 | O=C(Nc1ccccc1)c1cncc(-c2ccc(O)cc2)c1 |
| < 50 | < 50 | ≥ 50 | < 50 | < 50 |  | < 50 | CC(C)NC(=O)c1cncc(-c2ccc(O)cc2)c1 |
| < 50 |  | ≥ 50 | < 50 | < 50 | < 50 | < 50 | Cc1ccc(C)c(NC(=O)c2cncc(-c3ccc(O)cc3)c2)c1 |
| < 50 |  | ≥ 50 | < 50 | < 50 | < 50 | < 50 | Cc1cc(-c2cncc(C(=O)Nc3ccccc3)c2)cc(C)c1O |
| < 50 |  | < 50 | < 50 | < 50 | < 50 | < 50 | C[C@H](NC(=O)c1cncc(-c2ccc(F)cc2)c1)c1ccccc1 |
| < 50 | < 50 | < 50 | < 50 | < 50 |  | < 50 | CC(C)C(CO)NC(=O)c1cncc(-c2ccc(F)cc2)c1 (stereo not drawn) |
| < 50 |  | < 50 | < 50 | < 50 | ≥ 50 | < 50 | O=C(NCc1ccco1)c1cncc(-c2ccc(F)cc2)c1 |
| < 50 | < 50 | < 50 | < 50 | < 50 |  | < 50 | Cc1ccc(CNC(=O)c2cncc(-c3ccc(F)cc3)c2)cc1 |
| < 50 | < 50 | < 50 | < 50 | < 50 |  | < 50 | CN(Cc1ccccc1)C(=O)c1cncc(-c2ccc(F)cc2)c1 |
| < 50 |  | < 50 | < 50 | < 50 | < 50 | < 50 | COc1cc(NC(=O)c2cncc(-c3ccc(F)cc3)c2)cc(OC)c1OC |
| < 50 | < 50 | < 50 | < 50 | < 50 |  | < 50 | COc1cccc(-c2cncc(C(=O)NC(C)CCc3ccccc3)c2)c1 (stereo not drawn) |
| < 50 |  | < 50 | ≥ 50 | < 50 | < 50 | < 50 | C[C@@H](NC(=O)c1cncc(-c2ccncc2)c1)c1ccccc1 |
| < 50 | ≥ 50 | < 50 | < 50 | < 50 |  |  | O=C(NCc1ccc(F)cc1)c1cncc(-c2ccncc2)c1 |
| < 50 | < 50 | < 50 | < 50 | < 50 |  |  | O=C(NCc1ccc(F)cc1)c1cncc(-c2cccnc2)c1 |
| < 50 | < 50 | < 50 | < 50 | < 50 |  |  | Cc1cc(F)ccc1NC(=O)c1cncc(-c2ccncc2)c1 |
| < 50 | < 50 | < 50 | < 50 | < 50 |  |  | Cc1cc(F)ccc1NC(=O)c1cncc(-c2cccnc2)c1 |
